Legend:
Assay type in all cases: in vivo
[1] = tested on: Rhipicephalus microplus larvae, multi-resistant Tiaro reference strain; assay: Larval packet test (LPT), cattle tick larvae, multi-resistant strain; settings: for LC50 (ppm) / LC99 (ppm): Tiaro, Probit analysis
Protocol: Filter papers (75 mm×85 mm Whatman® No. 541), with grid patterns, were impregnated on ½ of the paper with 225 μL of each solution using a micro-pipette and immediately folded in half, enveloped in polyethylene plastic and sealed with 3 bulldog clips. The impregnated papers were kept at room temperature on aluminium trays for a minimum of 60 minutes to allow for dispersal across the grid pattern of the paper prior to aliquoting of larvae. The packets were prepared in duplicate for each concentration, including the negative control.
Aliquots of approximately 100 larvae were placed into each packet using plastic disposable forceps and the packets resealed and incubated and 27° C. and 85% relative humidity (RH).
After 24 hours, the larval packets were opened and the numbers of dead and live larvae were counted under a magnification lamp. Percentage mortality was calculated and, where applicable, corrected using Abbott's Formula (Abbott, 1925, J. Economic Entomology, 18:256-257): […]
LC50 and LC99 values were determined by Probit mortality vs log concentration analysis. Probit values were derived from “Transformation of Percentages to Probit's Tables” published by Fisher R. A. and Yates F. (1938).
The LPT Assay of Example 1 was repeated using a narrow range of concentrations, 1 in 2 series, of flavesone to determine LC50 and LC99 values against the susceptible NRFS and the multi-resistant Tiaro reference strain.
The Tiaro strain of R. microplus comprises of about 30% fluazuron, 60.6% cypermethrin (SP), 57.6% flumethrin (SP), 16.2% amitraz (amidine), 11.3% DDT, 9.3% chlorpyrifos (OP) and 2.4% dieldrin resistance [2014 acaricide resistance profiling].
The stock solution of flavesone (100,000 ppm) was diluted 1 in 10 with olive oil (1 mL to 9 mL diluent) to give 10,000 ppm, which was then further diluted 1 in 2 in series (5 mL to 5 mL diluent) to give 5,000 ppm, 2,500 ppm, 1,250 ppm, 625 ppm, 312.5 ppm and 156.25 ppm concentrations.
For the preparation of the positive control, cypermethrin, a stock solution of a concentration of 10,000 ppm was prepared in 2:1 trichloroethylene (TCE)/olive oil as the solvent ([…] cypermethrin, 94.8% purity, to 10 mL solvent) and then further diluted 1 in 2 in series (5 mL to 5 mL solvent) to also give 5,000 ppm, 2,500 ppm, 1,250 ppm, 625 ppm, 312.5 ppm and 156.25 ppm.
The flavesone papers were prepared as in Example 1.
The cypermethrin papers were impregnated with 670 μL of each solution using a micro-pipette and hung on a rack in a fume-hood to allow papers to dry (evaporation of TCE) for a minimum of 60 minutes. The papers were then folded in half and sealed with three bulldog clips, placed on aluminium trays prior to aliquoting the larvae. All packets were prepared in duplicate.
A dose-response relationship was determined at 24 hours contact exposure.
Concentrations of 1,250 ppm, 625 ppm and 312.5 ppm flavesone concentrations prepared for Example 3 were used on the same day of preparation. Duplicate papers were prepared for both the NRFS and Tiaro strains (including negative controls) as described in Example 2.
Mortality was assessed at 48 hours and LC50 and LC99 values were determined by Probit mortality vs log concentration analysis.

[2] = tested on: Tribolium castaneum susceptible strain QTC4; assay: Grain protectant bioassay on treated wheat, T. castaneum susceptible; settings: for Progeny reduction (%): vs untreated control
[3] = tested on: Cryptolestes ferrugineus strain QCF73 (resistant to phosphine); assay: Grain protectant bioassay on treated wheat, C. ferrugineus resistant; settings: for Progeny reduction (%): vs untreated control
[4] = tested on: Sitophilus oryzae susceptible strain LS2; assay: Grain protectant bioassay on treated wheat, S. oryzae susceptible; settings: for Progeny reduction (%): vs untreated control
[5] = tested on: Sitophilus oryzae strain QSO393 (resistant to fenitrothion); assay: Grain protectant bioassay on treated wheat, S. oryzae resistant; settings: for Progeny reduction (%): vs untreated control
[6] = Rhipicephalus microplus, Example 2, 24 hours
[7] = Rhipicephalus microplus, Example 4, 48 hours
[8] = Sitophilus oryzae, 336 h, 25 mg/kg, 2 weeks, mean ± SE, read-out: Adult mortality (%)
[9] = Sitophilus oryzae, 336 h, 60 mg/kg, 2 weeks, mean ± SE, read-out: Adult mortality (%)

Compound: CC(C)C(=O)C1C(=O)C(C)(C)C(=O)C(C)(C)C1=O [Flavesone, 1-isobutyroyl-3,3,5,5-tetramethylcyclohexane-2,4,6-trione]
- cross-resistance, comparing LC50 and LC99 data between NRFS and Tiaro strains ([1]; Example 2, 24 hours): no evidence of cross-resistance
- LC50 (ppm) ([1]; Example 2, 24 hours): 647 ppm
- LC99 (ppm) ([1]; Example 2, 24 hours): 1039 ppm
- LC50 (ppm) ([1]; Example 4, 48 hours): 521 ppm
- LC99 (ppm) ([1]; Example 4, 48 hours): 887 ppm
- mortality at 2.5 ppm ([1]; Rhipicephalus microplus, Example 2, 2.500 ppm, 24 hours): 100%
- mortality at 156.25 ppm ([1]; Rhipicephalus microplus, Example 2, 156.25 ppm, 24 hours): 0%
- mortality at 312.5 ppm [1, 6]: 0.13%
- mortality at 625 ppm [1, 6]: 12.8%
- mortality at 1250 ppm ([1]; Rhipicephalus microplus, Example 2, 1,250 ppm, 24 hours): 100%
- mortality at 5000 ppm ([1]; Rhipicephalus microplus, Example 2, 5,000 ppm, 24 hours): 100%
- mortality at 10000 ppm ([1]; Rhipicephalus microplus, Example 2, 10,000 ppm, 24 hours): 100%
- mortality at 312.5 ppm [1, 7]: 0.97%
- mortality at 625 ppm [1, 7]: 84.1%
- mortality at 1250 ppm ([1]; Rhipicephalus microplus, Example 4, 1250 ppm, 48 hours): 100%
- Live adult progeny ([2]; 25 mg/kg, mean ± SE): 120.0 ± 16.1
- Live adult progeny ([2]; 60 mg/kg, mean ± SE): 65.0 ± 3.2
- Progeny reduction (%) ([2]; 60 mg/kg): 45.2%
- Progeny reduction (%) ([2]; 60 mg/kg, listed as flavesone): 45%
- mortality at 25 mg/kg ([2]; Tribolium castaneum, 336 h, 25 mg/kg, 2 weeks, mean ± SE, read-out: Adult mortality (%)): 0%
- mortality at 60 mg/kg ([2]; Tribolium castaneum, 336 h, 60 mg/kg, 2 weeks, mean ± SE, read-out: Adult mortality (%)): 0%
- Live adult progeny ([3]; 25 mg/kg, mean ± SE): 83.7 ± 6.5
- Progeny reduction (%) ([3]; 25 mg/kg): 75.7%
- Progeny reduction (%) ([3]; 25 mg/kg, listed as flavesone): ~75%
- Live adult progeny ([3]; 60 mg/kg, mean ± SE): 0.0 ± 0.0
- Progeny reduction (%) ([3]; 60 mg/kg): 100%
- mortality at 25 mg/kg ([3]; Cryptolestes ferrugineus, 336 h, 25 mg/kg, 2 weeks, mean ± SE, read-out: Adult mortality (%)): 3.3 ± 1.3%
- mortality at 60 mg/kg ([3]; Cryptolestes ferrugineus, 336 h, 60 mg/kg, 2 weeks, mean ± SE, read-out: Adult mortality (%)): 62%
- Live adult progeny ([4]; 25 mg/kg, mean ± SE): 735.3 ± 60.6
- Live adult progeny ([4]; 60 mg/kg, mean ± SE): 355.3 ± 64.7
- Progeny reduction (%) ([4]; 60 mg/kg): 50.3%
- Progeny reduction (%) ([4]; 60 mg/kg, listed as flavesone): 50%
- mortality at 25 mg/kg [4, 8]: 1.3 ± 0.7%
- mortality at 60 mg/kg [4, 9]: 4 ± 1.2%
- Live adult progeny ([5]; 25 mg/kg, mean ± SE): 572.7 ± 100.9
- Progeny reduction (%) ([5]; 25 mg/kg): 6.1%
- Live adult progeny ([5]; 60 mg/kg, mean ± SE): 430.0 ± 51.0
- Progeny reduction (%) ([5]; 60 mg/kg): 29.5%
- Progeny reduction (%) ([5]; 60 mg/kg, listed as flavesone): 29%
- mortality at 25 mg/kg [5, 8]: 0.7 ± 0.7%
- mortality at 60 mg/kg [5, 9]: 0.7 ± 0.7%
